The values below come from patent publication US20160130257A1, “Macrocyclic proteasome inhibitors” (BROWN UNIVERSITY, priority 2013, published 2016).

The target of series [1] is Mycobacterium tuberculosis 20S peptidase (mtb 20S) (Mycobacterium tuberculosis, UniProt P9WHT9).
In series [2] the test system is non-heme chloroperoxidase SCO0456 gene transcription. As to the kind of experiment: Peroxidase gene (SCO0456) transcription assay of proteasome inhibition in S. coelicolor. Type of series: cell-based, Streptomyces coelicolor. The note with it: for transcription of the proteasome-dependent peroxidase gene: S. coelicolor wild-type, RT-PCR / reporter.
In a further series the target is mycobacterial proteasome (Mycobacterium tuberculosis, UniProt P9WHT9). The note with it: cited from earlier work.
Sequence of mycobacterial proteasome (P9WHT9 58-291): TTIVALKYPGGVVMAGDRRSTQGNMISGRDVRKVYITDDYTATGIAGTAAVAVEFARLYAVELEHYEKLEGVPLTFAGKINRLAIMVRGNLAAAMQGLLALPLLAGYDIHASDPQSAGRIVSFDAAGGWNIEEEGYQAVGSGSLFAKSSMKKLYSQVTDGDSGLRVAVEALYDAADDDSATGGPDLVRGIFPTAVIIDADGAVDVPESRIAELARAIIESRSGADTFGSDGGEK
Sequence of mycobacterial proteasome (P9WHU1 whole entry partner): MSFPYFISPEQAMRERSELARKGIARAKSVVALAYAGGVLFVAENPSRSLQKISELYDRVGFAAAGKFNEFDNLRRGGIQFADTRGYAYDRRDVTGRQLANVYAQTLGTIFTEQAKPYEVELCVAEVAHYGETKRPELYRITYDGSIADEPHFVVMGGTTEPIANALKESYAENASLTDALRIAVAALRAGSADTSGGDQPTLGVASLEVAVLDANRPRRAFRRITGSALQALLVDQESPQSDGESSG
For series [3], the system named is 60 different human tumor cell lines. Type of series: cell-based. From the text: The In Vitro Cell Line Screening Project (IVCLSP) is a dedicated service providing direct support to the DTP anticancer drug discovery program. The screen utilizes 60 different human tumor cell lines, representing leukemia, melanoma and cancers of the lung, colon, brain, ovary, breast, prostate, and kidney. IVCLSP is unique because the complexity of a 60 cell line dose response produced by a given compound results in a biological response pattern, which can be utilized in pattern recognition algorithms. Using the pattern recognition algorithms, it is possible to assign a putative mechanism of action to a test compound, or to determine that the response pattern is unique and not similar to that of any of the standard prototype compounds included in the NCI database. The methodology of the in vitro cancer screen is available from the NIH.

Where two headings read alike, the source gives them in different places.

One may read the IC50 as the midpoint of a concentration-inhibition curve.

Sequence of Mycobacterium tuberculosis 20S peptidase (mtb 20S) (P9WHT9 58-291): as the sequence (P9WHT9 58-291) above
Sequence of Mycobacterium tuberculosis 20S peptidase (mtb 20S) (P9WHU1 whole entry partner): as the sequence (P9WHU1 whole entry partner) above

For `COC(=O)C(NC(=O)N1CCCC1C(=O)NC1CCCCNC(=O)C=CC(Cc2c[nH]c3ccccc23)NC1=O)C(C)C` (stereo not drawn) [Compound O], in series [1], the IC50 came to 2670 nM; the “selective inhibition of M. tuberculosis proteasome compared to human proteasome (in words, from ratio of IC50 values)” value is “selectively inhibits”; the “selectivity for the mycobacterial proteasome compared to the human enzyme” value was determined as 13.4 fold; the “selectivity of M. tuberculosis proteasome inhibition compared to Syringolin B” value was “more than 1,900 times”.
As to `CC(C)C1/C=C\C(=O)NCCCCC(NC(=O)C(NC(=O)NC(C(=O)O)C(C)C)C(C)C)C(=O)N1` (stereo not drawn) [Syringolin B], the “SCO0456 expression (gel electrophoresis of RNA samples)” value in series [2] (wild-type S. coelicolor, 150 μg/ml, 5 hours, 30° C.) was “up regulated”.
Take `CCCCCCCCC[C@@H](O)CC(=O)N[C@@H](CC(N)=O)C(=O)N[C@@H](CCC(N)=O)C(=O)N[C@H](C=O)CC(C)C` [Fellutamide B]: the “inhibition of proteasomes (in words)” value at mycobacterial proteasome is listed as “inhibit the mycobacterial proteasomes”.
On to `COC(=O)C(NC(=O)NCC(=O)NC1CCCCNC(=O)C=CC(Cc2c[nH]c3ccccc23)NC1=O)C(C)C` (stereo not drawn) [Compound P], for which, in series [1], the concentration for half-maximal inhibition (IC50) was determined as 0.114 nM; the “selective inhibition of M. tuberculosis proteasome compared to human proteasome (in words, from ratio of IC50 values)” value is listed as “selectively inhibits”; the “selectivity for M. tuberculosis proteasome than human proteasome” value worked out at 46 times; the “selectivity for the mycobacterial proteasome compared to the human enzyme” value came out at 45.6 fold. Further, in series [1], the “selectivity of M. tuberculosis proteasome inhibition compared to Syringolin B” value is reported as “more than 6,500 times”. Besides, the “transcription of the proteasome-dependent peroxidase gene” value in series [2] was “induced transcription of the peroxidase reporter gene”. Further, in series [3], the “toxicity to human cells” value is “not toxic to human cells”. The “killing of cancer cells” value in series [3] (60 cancer cell lines) is listed as “does not kill cancer cells”. The “inhibition of cancer cell proteasomes” value in series [3] (inferred from 60 cell line screen) was “does not inhibit cancer cell proteasomes”.
Consider `CC(C)C[C@H](NC(=O)[C@H](Cc1ccccc1)NC(=O)c1cnccn1)B(O)O` [bortezomib, Bortezomib], for which the “transcription of the proteasome-dependent peroxidase gene” value in series [2] is listed as “significantly up-regulated”. In addition, the “inhibition of proteasomes (in words)” value on mycobacterial proteasome is “inhibit the mycobacterial proteasomes”; at mycobacterial proteasome (listed as Bortezomib), “inhibits both bacterial and human proteasomes”.
